Laboratory results reported in US9221795B2, “Phosphatidylinositol 3-kinase inhibitors” (Gilead Sciences, Inc., priority 2013, dated 2015).

Experiments:
PI3Kδ = PI3Kδ (Homo sapiens (Human), UniProt O00329); experiment: Enzymatic activity of PI3K isoforms, TR-FRET assay (PI3Kδ); type: biochemical; settings: 2× Km ATP, geometric mean if more than one value
Outline: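 Recombinant heterodimeric PI3Kβ or PI3Kδ (25-50 pM) was run with 2 μM PIP2 and 2× Km ATP (75-500 μM) at pH 7.4, for 30 min at 25° C. PIP3 formation was detected by TR-FRET displacement of labeled PIP3 from Eu-GRP-1. IC50 values in nM come from four-parameter fits, as geometric means.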

basophils = experiment: Basophil activation in human whole blood (Flow2 CAST kit, CD63 flow cytometry); type: cell-based
Experimental: Effect on basophil activation was measured in human whole blood using the Flow2 CAST® kit (Buhlmann Laboratories AG, Baselstrasse, Switzerland) following the protocol provided by the manufacturer with minor modifications. Human whole blood was collected into K2-EDTA venipuncture tubes. Whole blood samples were treated with either DMSO (0.3% final) or a serial dilution of compounds in DMSO for 60 minutes at 37° C. Basophils were then activated either with anti-FcεRI mAb or with fMLP. To activate basophils using the anti-FcεRI mAb; 50 μL of whole blood was mixed with 110 μL of stimulation buffer (B-BAT-STB) and 20 μl of anti-FcεRI (B-BAT-STCON). To activate basophils with fMLP; 50 μL of whole blood was mixed with 80 μL of stimulation buffer (B-BAT-STB) and 50 μL of fMLP (B-CCR-FMLP). Stimulation buffer was used as a negative control. 20 μL of the staining reagent (combination of anti-human CD63-FITC and anti-human CCR3-PE mAbs) was then added to each tube. The tubes were mixed gently and incubated for 25 minutes at 37° C. Subsequently, erythrocytes were lysed and fixed by the addition of 2 mL of lysing solution (B-BAT-LYR) for 10 minutes at room temperature. Cells were pelleted by centrifugation at 1200 rpm for 10 minutes at room temperature in a swing-out rotor. Supernatant was aspirated and cell pellet resuspended in 400 μL of wash buffer. Flow cytometric analysis of the basophil activation was performed on a FC500MPL flow cytometer (Beckman Coulter Inc., Fullerton, Calif.). CCR3-staining and side scatter were applied to gate at least 200 basophils that expressed a high density of CCR3. The percent CD63 positive cells within the gated basophil population were determined in different treatment groups and normalized to the vehicle control (0.3% DMSO) with anti-FcεRI mAb of fMLP stimulus as 100%. Final compound concentration was adjusted to correct for dilution effect of added reagents. The EC50 values were calculated from the analysis of the dose-response curves to a four-parameter equation.

[1] = Hepatocyte stability (parent drug disappearance in cryopreserved hepatocytes); type: in vitro ADME, human; settings: human, cryopreserved human hepatocytes, human hepatocytes
Experimental: This assay was used to evaluate the metabolic stability of test articles (TA) following incubation in cryopreserved hepatocytes by monitoring parent drug disappearance via LC/MC. The TA was incubated with 1 million hepatocytes/mL at 2 μM substrate in duplicate. The incubation was carried out at 37° C. with 5% CO2 and saturating humidity. Samples were taken at 0, 1, 2, and 4 hours to monitor the disappearance of TA and a half-life (t1/2) was determined. Table 3 below summarizes the human hepatocyte t1/2 values (hours) collected in the Example.

[2] = class symbol, 2 μM substrate, 37° C.
[3] = 2 μM substrate, 37° C., Table 3
[4] = Homo sapiens, class symbol, human whole blood, basophils activated with anti-FcεRI mAb or fMLP, percent CD63 positive cells
[5] = Homo sapiens, human whole blood, basophils activated with anti-FcεRI mAb or fMLP, percent CD63 positive cells, geometric mean

PI3Kδ, sequence (O00329 whole entry, canonical isoform): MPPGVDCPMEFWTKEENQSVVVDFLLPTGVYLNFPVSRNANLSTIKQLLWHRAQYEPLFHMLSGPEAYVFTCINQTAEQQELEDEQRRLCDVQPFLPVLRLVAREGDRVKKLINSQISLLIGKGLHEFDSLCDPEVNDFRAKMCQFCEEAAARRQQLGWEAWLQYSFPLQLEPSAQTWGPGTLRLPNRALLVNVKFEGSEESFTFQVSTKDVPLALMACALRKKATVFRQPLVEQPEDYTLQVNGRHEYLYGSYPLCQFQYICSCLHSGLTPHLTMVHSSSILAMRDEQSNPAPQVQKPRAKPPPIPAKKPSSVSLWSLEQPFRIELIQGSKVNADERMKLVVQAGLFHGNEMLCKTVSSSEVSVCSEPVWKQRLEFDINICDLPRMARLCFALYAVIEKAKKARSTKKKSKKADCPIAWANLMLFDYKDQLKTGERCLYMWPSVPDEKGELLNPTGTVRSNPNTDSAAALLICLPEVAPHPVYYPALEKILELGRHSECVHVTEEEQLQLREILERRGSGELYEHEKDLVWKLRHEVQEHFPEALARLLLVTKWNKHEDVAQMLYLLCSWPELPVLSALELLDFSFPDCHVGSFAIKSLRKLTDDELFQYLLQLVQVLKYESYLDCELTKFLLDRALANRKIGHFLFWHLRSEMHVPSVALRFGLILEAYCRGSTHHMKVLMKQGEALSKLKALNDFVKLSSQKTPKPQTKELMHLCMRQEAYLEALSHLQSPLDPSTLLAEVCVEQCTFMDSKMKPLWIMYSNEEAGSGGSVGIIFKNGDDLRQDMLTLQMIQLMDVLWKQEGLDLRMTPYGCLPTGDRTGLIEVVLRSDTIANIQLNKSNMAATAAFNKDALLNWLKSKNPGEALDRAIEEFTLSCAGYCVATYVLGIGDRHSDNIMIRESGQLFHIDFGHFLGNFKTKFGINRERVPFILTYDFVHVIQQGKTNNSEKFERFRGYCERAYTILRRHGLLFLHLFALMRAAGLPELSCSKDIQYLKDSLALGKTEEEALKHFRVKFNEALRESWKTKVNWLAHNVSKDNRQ
PI3Kδ, sequence (P27986 whole entry partner, canonical isoform): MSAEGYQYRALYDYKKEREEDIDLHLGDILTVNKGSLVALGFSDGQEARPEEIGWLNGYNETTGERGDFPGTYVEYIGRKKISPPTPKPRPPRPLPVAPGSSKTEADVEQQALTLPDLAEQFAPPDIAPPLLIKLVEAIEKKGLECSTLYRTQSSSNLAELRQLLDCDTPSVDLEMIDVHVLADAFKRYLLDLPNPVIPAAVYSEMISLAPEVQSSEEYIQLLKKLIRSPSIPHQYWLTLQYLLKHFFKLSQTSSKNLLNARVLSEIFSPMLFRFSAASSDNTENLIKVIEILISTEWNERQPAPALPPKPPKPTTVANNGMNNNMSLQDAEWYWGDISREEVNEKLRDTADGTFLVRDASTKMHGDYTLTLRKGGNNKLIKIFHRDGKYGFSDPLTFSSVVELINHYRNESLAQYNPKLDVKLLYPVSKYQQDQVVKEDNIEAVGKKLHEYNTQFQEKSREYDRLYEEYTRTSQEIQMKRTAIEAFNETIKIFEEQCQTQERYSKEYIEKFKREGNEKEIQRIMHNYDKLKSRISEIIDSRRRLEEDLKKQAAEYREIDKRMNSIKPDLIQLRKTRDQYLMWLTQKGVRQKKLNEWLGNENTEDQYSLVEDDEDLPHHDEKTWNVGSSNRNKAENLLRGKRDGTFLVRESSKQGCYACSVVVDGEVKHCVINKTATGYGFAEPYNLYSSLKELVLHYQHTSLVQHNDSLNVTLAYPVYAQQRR

| Structure (SMILES) | IC50 (PI3Kδ) | EC50 (basophils; class symbol, human whole blood, basophils activated with anti-FcεRI mAb or fMLP, percent CD63 positive cells) | EC50 (basophils; human whole blood, basophils activated with anti-FcεRI mAb or fMLP, percent CD63 positive cells, geometric mean) | half-life at 2 μM [1, 2] | half-life at 2 μM [1, 3] | EC50 (basophils; [4]) | EC50 (basophils; [5]) | EC50 (basophils; Homo sapiens, basophil activation in human whole blood, comparison Table 4) | half-life at 2 μM ([1]; comparison Table 4) |
| --- | --- | --- | --- | --- | --- | --- | --- | --- | --- |
| Cc1ccncc1-n1c([C@H](C)Nc2nc(N)nc(N)c2C#N)nc2cccc(Cl)c2c1=O (atropisomer, axis not shown) [Compound 41, (S)-2,4-diamino-6-(1-(5-chloro-3-(4-methylpyridin-3-yl)-4-oxo-3,4-dihydroquinazolin-2-yl)ethylamino)pyrimidine-5-carbonitrile] | 0.4 nM | 1 to 10 nM | 4 nM | > 10 h | > 10 h |  |  |  |  |
| Cc1ncc(F)cc1-n1c([C@H](C)Nc2nc(N)nc(N)c2C#N)nc2cccc(Cl)c2c1=O (atropisomer, axis not shown) [Compound 45, (S)-2,4-diamino-6-(1-(5-chloro-3-(5-fluoro-2-methylpyridin-3-yl)-4-oxo-3,4-dihydroquinazolin-2-yl)ethylamino)pyrimidine-5-carbonitrile] | 6 nM |  |  | 3 to 6 h | 4 h | 1 to 10 nM | 7 nM |  |  |
| C[C@H](Nc1nc(N)nc(N)c1C#N)c1nc2cccc(Cl)c2c(=O)n1-c1cccnc1 [Compound 1, (S)-2,4-diamino-6-((1-(5-chloro-4-oxo-3-(pyridin-3-yl)-3,4-dihydroquinazolin-2-yl)ethyl)amino)pyrimidine-5-carbonitrile] | 0.6 nM |  |  | > 10 h | > 10 h | < 1 nM | 0.9 nM | < 1 nM | > 10 h |
| CC[C@H](Nc1nc(N)nc(N)c1C#N)c1nc2cccc(Cl)c2c(=O)n1-c1cccnc1 [Compound 2, (S)-2,4-diamino-6-(1-(5-chloro-4-oxo-3-(pyridin-3-yl)-3,4-dihydroquinazolin-2-yl)propylamino)pyrimidine-5-carbonitrile] | 2 nM |  |  | > 10 h | > 10 h | 1 to 10 nM | 2 nM |  |  |
| N#Cc1c(N)nc(N)nc1N[C@H](c1nc2cccc(Cl)c2c(=O)n1-c1cccnc1)C1CC1 [Compound 3, (S)-2,4-diamino-6-((5-chloro-4-oxo-3-(pyridin-3-yl)-3,4-dihydroquinazolin-2-yl)(cyclopropyl)methylamino)pyrimidine-5-carbonitrile] | 0.6 nM |  |  | > 10 h | > 10 h | 1 to 10 nM | 2 nM |  |  |
| C[C@H](Nc1nc(N)nc(N)c1C#N)c1nc2ccc(F)cc2c(=O)n1-c1cccnc1 [Compound 5, (S)-2,4-diamino-6-(1-(6-fluoro-4-oxo-3-(pyridin-3-yl)-3,4-dihydroquinazolin-2-yl)ethylamino)pyrimidine-5-carbonitrile] | 14 nM |  |  | > 10 h | > 10 h | 1 to 10 nM | 2 nM |  |  |
| C[C@H](Nc1nc(N)nc(N)c1C#N)c1nc2cccc(C(F)(F)F)c2c(=O)n1-c1cccnc1 [Compound 9, (S)-2,4-diamino-6-(1-(4-oxo-3-(pyridin-3-yl)-5-(trifluoromethyl)-3,4-dihydroquinazolin-2-yl)ethylamino)pyrimidine-5-carbonitrile] | 2 nM |  |  | > 10 h | > 10 h | 1 to 10 nM | 3 nM |  |  |
| Cc1cccc2nc([C@H](C)Nc3nc(N)nc(N)c3C#N)n(-c3cncc(F)c3)c(=O)c12 [Compound 11, (S)-2,4-diamino-6-(1-(3-(5-fluoropyridin-3-yl)-5-methyl-4-oxo-3,4-dihydroquinazolin-2-yl)ethylamino)pyrimidine-5-carbonitrile] | 0.8 nM |  |  | 3 to 6 h | 5 h | < 1 nM | 0.5 nM |  |  |
| C[C@H](Nc1nc(N)nc(N)c1C#N)c1nc2cccc(Cl)c2c(=O)n1-c1cncc(F)c1 [Compound 12, (S)-2,4-diamino-6-(1-(5-chloro-3-(5-fluoropyridin-3-yl)-4-oxo-3,4-dihydroquinazolin-2-yl)ethylamino)pyrimidine-5-carbonitrile] | 2 nM |  |  | > 10 h | > 10 h | 1 to 10 nM | 1 nM |  |  |
| COc1cncc(-n2c([C@H](C)Nc3nc(N)nc(N)c3C#N)nc3cccc(Cl)c3c2=O)c1 [Compound 14, (S)-2,4-diamino-6-(1-(5-chloro-3-(5-methoxypyridin-3-yl)-4-oxo-3,4-dihydroquinazolin-2-yl)ethylamino)pyrimidine-5-carbonitrile] | 4 nM |  |  | 6 to 10 h | 8 h | 1 to 10 nM | 3 nM |  |  |
| C[C@H](Nc1nc(N)nc(N)c1C#N)c1nc2cccc(Cl)c2c(=O)n1-c1cncc(C(F)F)c1 [Compound 15, (S)-2,4-diamino-6-(1-(5-chloro-3-(5-(difluoromethyl)pyridin-3-yl)-4-oxo-3,4-dihydroquinazolin-2-yl)ethylamino)pyrimidine-5-carbonitrile] | 4 nM |  |  | > 10 h | > 10 h | 10 to 50 nM | 19 nM |  |  |
| C[C@H](Nc1nc(N)nc(N)c1C#N)c1nc2cccc(Cl)c2c(=O)n1-c1cncc(C2CC2)c1 [Compound 19, (S)-2,4-diamino-6-(1-(5-chloro-3-(5-cyclopropylpyridin-3-yl)-4-oxo-3,4-dihydroquinazolin-2-yl)ethylamino)pyrimidine-5-carbonitrile] | 5 nM |  |  | 6 to 10 h | 7 h | 1 to 10 nM | 7 nM |  |  |
| CC[C@H](Nc1nc(N)nc(N)c1C#N)c1nc2cccc(Cl)c2c(=O)n1-c1cncc(F)c1 [Compound 20, (S)-2,4-diamino-6-(1-(5-chloro-3-(5-fluoropyridin-3-yl)-4-oxo-3,4-dihydroquinazolin-2-yl)propylamino)pyrimidine-5-carbonitrile] | 3 nM |  |  | > 10 h | > 10 h | 1 to 10 nM | 3 nM |  |  |
| N#Cc1c(N)nc(N)nc1N[C@H](c1nc2cccc(Cl)c2c(=O)n1-c1cncc(F)c1)C1CC1 [Compound 21, (S)-2,4-diamino-6-((5-chloro-3-(5-fluoropyridin-3-yl)-4-oxo-3,4-dihydroquinazolin-2-yl)(cyclopropyl)methylamino)pyrimidine-5-carbonitrile] | 2 nM |  |  | > 10 h | > 10 h | 1 to 10 nM | 4 nM |  |  |
| C[C@H](Nc1nc(N)nc(N)c1C#N)c1nc2c(Cl)cccc2c(=O)n1-c1cccnc1 [Compound 22, (S)-2,4-diamino-6-(1-(8-chloro-4-oxo-3-(pyridin-3-yl)-3,4-dihydroquinazolin-2-yl)ethylamino)pyrimidine-5-carbonitrile] | 6 nM |  |  | 6 to 10 h | 9 h | 1 to 10 nM | 5 nM |  |  |
| C[C@H](Nc1nc(N)nc(N)c1C#N)c1nc2c(Cl)ccc(Cl)c2c(=O)n1-c1cccnc1 [Compound 23, (S)-2,4-diamino-6-(1-(5,8-dichloro-4-oxo-3-(pyridin-3-yl)-3,4-dihydroquinazolin-2-yl)ethylamino)pyrimidine-5-carbonitrile] | 0.7 nM |  |  | > 10 h | > 10 h | < 1 nM | 0.8 nM |  |  |
| C[C@H](Nc1nc(N)nc(N)c1C#N)c1nc2c(F)ccc(Cl)c2c(=O)n1-c1cccnc1 [Compound 24, (S)-2,4-diamino-6-(1-(5-chloro-8-fluoro-4-oxo-3-(pyridin-3-yl)-3,4-dihydroquinazolin-2-yl)ethylamino)pyrimidine-5-carbonitrile] | 0.4 nM |  |  | > 10 h | > 10 h | < 1 nM | 0.3 nM |  |  |
